Assay results published in patent US11149037B2, “Pyrazole MAGL inhibitors” (H. Lundbeck A/S, priority 2017, dated 2021).

Columns and labels:
MAGL [1] = biological target: T1, MAGL (Mus musculus (Mouse), UniProt O35678); test: In vitro competitive activity-based protein profiling, mouse proteomes (brain membrane fraction or cell lysates); format: biochemical; conditions: mouse proteome, read-out: MAGL % inh. 1 μM (mouse)
In short: (§1)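 Activity of MAGL and FAAH was quantified from fluorescent gel band intensities. Beforehand, inhibitors at several concentrations competed against subsequent probe labelling (FP-Rh, JW912 or HT-01) in species-matched proteomes, each step 30 min at 37° C.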

FAAH [2] = biological target: T2, FAAH (Mus musculus (Mouse), UniProt O08914); test: as above; format: biochemical; conditions: mouse proteome, read-out: FAAH % inh. 1 μM (mouse)
T2 sequence (O08914 whole entry): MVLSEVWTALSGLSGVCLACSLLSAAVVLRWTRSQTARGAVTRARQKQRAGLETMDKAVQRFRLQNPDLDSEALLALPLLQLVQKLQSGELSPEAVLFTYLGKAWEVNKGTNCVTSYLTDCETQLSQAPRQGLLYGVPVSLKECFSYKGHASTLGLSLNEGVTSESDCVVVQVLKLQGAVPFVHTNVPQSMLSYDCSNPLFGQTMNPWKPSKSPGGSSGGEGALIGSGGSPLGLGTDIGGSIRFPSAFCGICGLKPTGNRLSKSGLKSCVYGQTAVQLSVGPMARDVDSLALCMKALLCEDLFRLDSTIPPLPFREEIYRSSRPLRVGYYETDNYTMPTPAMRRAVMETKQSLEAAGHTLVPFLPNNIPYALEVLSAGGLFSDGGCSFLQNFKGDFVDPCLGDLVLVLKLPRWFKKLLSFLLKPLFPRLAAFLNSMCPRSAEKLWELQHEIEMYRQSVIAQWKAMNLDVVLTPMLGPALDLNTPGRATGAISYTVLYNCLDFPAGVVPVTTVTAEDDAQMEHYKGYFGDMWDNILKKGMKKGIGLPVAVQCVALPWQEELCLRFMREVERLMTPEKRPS
In short: as §1

MAGL [3] = biological target: T1, MAGL; test: Mouse brain proteomes from inhibitor treated mice (oral gavage, sacrificed 4 h after administration); format: in vivo; conditions: 5 mg/kg oral gavage
Experimental: (§2) Preparation of Mouse Brain Proteomes from Inhibitor Treated Mice.
(§3) Inhibitors were administered to wild-type C57B1/6J by oral gavage in a vehicle of polyethylene glycol. Each animal was sacrificed 4 h following administration and brain proteomes were prepared and analyzed according to previously established methods (See Niphakis, M. J., et al. (2011) ACS Chem. Neurosci. and Long, J. Z., et al. Nat. Chem. Biol. 5:37-44).

FAAH [4] = biological target: T2, FAAH; test: as above; format: in vivo; conditions: 5 mg/kg oral gavage
Experimental: as §2, §3

FAAH [5] = biological target: FAAH (Homo sapiens (Human), UniProt O00519); test: In vitro competitive activity-based protein profiling, human proteomes (prefrontal cortex or PC3 cell membrane fractions); format: biochemical; conditions: human proteome; for inhibition at 1 µM: read-out: FAAH % inh. 1 μM (human)
Chain of FAAH (Homo sapiens (Human), UniProt O00519) (O00519 whole entry): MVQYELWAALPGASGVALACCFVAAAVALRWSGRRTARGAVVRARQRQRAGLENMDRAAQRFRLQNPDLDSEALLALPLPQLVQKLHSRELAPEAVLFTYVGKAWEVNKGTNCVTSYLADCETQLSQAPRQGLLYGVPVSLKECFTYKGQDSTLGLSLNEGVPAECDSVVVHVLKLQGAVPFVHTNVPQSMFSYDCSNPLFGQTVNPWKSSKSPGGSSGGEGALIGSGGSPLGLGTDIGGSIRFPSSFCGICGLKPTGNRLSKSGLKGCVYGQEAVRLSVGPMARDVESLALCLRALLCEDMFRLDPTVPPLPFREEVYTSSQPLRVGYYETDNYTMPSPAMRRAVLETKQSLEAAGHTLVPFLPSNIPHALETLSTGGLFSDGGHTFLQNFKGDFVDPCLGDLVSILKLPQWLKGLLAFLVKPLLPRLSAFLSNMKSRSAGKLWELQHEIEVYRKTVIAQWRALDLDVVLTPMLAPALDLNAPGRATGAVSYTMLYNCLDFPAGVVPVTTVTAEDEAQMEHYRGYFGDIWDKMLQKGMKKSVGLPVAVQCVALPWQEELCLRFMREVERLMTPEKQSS
In short: as §1

MAGL [6] = biological target: MAGL (Homo sapiens (Human), UniProt Q99685); test: as above; format: biochemical; conditions: human proteome; for inhibition at 1 µM: read-out: MAGL % inh. 1 μM (human)
Chain of MAGL (Homo sapiens (Human), UniProt Q99685) (Q99685 whole entry): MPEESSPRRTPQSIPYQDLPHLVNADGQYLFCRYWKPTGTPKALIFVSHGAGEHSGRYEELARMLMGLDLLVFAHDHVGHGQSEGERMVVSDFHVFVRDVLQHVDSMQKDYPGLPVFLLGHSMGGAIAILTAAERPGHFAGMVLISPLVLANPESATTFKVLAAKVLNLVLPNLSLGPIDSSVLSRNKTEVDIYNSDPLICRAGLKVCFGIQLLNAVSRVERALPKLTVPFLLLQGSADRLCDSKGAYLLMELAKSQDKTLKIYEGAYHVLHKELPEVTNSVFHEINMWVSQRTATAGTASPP
In short: as §1

T1 sequence (O35678 whole entry): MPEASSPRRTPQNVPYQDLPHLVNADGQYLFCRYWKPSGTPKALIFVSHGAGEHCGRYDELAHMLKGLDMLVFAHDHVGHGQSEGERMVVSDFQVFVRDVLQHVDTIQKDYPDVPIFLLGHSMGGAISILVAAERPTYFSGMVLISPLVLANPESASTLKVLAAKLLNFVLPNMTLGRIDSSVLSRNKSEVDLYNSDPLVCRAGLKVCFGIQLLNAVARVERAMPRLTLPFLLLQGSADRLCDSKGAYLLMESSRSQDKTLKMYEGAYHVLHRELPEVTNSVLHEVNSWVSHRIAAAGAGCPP

`CN(Cc1ccc(C(F)(F)F)cc1N1CCCC1)C1(C)CCN(C(=O)n2ccc(NS(C)(=O)=O)n2)CC1` [Example 75, N-(1-(4-Methyl-4-(methyl(2-(pyrrolidin-1-yl)-4-(trifluoromethyl)benzyl)amino)piperidine-1-carbonyl)-1H-pyrazol-3-yl)methanesulfonamide] was tested, and the inhibition at 1 µM (MAGL [1]) was greater than 75%, the inhibition at 1 µM (FAAH [2]) was 0 to 25% and the “MAGL % inh. 5 mg/kg (mouse)” value (MAGL [3]) was “A (% inhibition is greater than or equal to 75%)”. The “FAAH % inh. 5 mg/kg (mouse)” value (FAAH [4]) was “D (% inhibition is greater than or equal to 0% and less than 25%)”, the inhibition at 1 µM (FAAH [5]) was 0 to 25% and the inhibition at 1 µM (MAGL [6]) was greater than 75%.

With `CC(=O)Nc1ccn(C(=O)N2CCC3(CCCN3Cc3cc4cc(Cl)ccc4s3)CC2)n1` [Example 39, N-(1-(1-((5-Chlorobenzo[b]thiophen-2-yl)methyl)-1,8-diazaspiro[4.5]decane-8-carbonyl)-1H-pyrazol-3-yl)acetamide] the inhibition at 1 µM (MAGL [1]) was greater than 75%, the inhibition at 1 µM (FAAH [2]) was 50 to 75% and the “MAGL % inh. 5 mg/kg (mouse)” value (MAGL [3]) was “A (% inhibition is greater than or equal to 75%)”. The “FAAH % inh. 5 mg/kg (mouse)” value (FAAH [4]) was “D (% inhibition is greater than or equal to 0% and less than 25%)”, the IC50 (FAAH [5]) was 1 to 10 µM and the IC50 (MAGL [6]) was less than 0.1 µM.

For `CC(=O)Nc1ccn(C(=O)N2CCC3(CCN(C(=O)c4cc5ccc(C(F)(F)F)cc5s4)C3)CC2)n1` [Example 154, N-(1-(2-(6-(Trifluoromethyl)benzo[b]thiophene-2-carbonyl)-2,8-diazaspiro[4.5]decane-8-carbonyl)-1H-pyrazol-3-yl)acetamide], the inhibition at 1 µM (MAGL [1]) was greater than 75%, the inhibition at 1 µM (FAAH [2]) was greater than 75% and the “MAGL % inh. 5 mg/kg (mouse)” value (MAGL [3]) was “B (% inhibition is greater than or equal to 50% and less than 75%)”. The “FAAH % inh. 5 mg/kg (mouse)” value (FAAH [4]) was “C (% inhibition is greater than or equal to 25% and less than 50%)”, the inhibition at 1 µM (FAAH [5]) was 25 to 50% and the IC50 (FAAH [5]) was 1 to 10 µM. The inhibition at 1 µM (MAGL [6]) was greater than 75% and the IC50 (MAGL [6]) was less than 0.1 µM.

`C[C@H]1CN(Cc2ccc(Cl)c(N3CCC(F)CC3)c2)CCN1C(=O)n1ccc(NS(C)(=O)=O)n1` [Example 136, (S)-N-(1-(4-(4-Chloro-3-(4-fluoropiperidin-1-yl)benzyl)-2-methylpiperazine-1-carbonyl)-1H-pyrazol-3-yl)methanesulfonamide] was tested, and the inhibition at 1 µM (MAGL [1]) was greater than 75%, the inhibition at 1 µM (FAAH [2]) was 0 to 25% and the “MAGL % inh. 5 mg/kg (mouse)” value (MAGL [3]) was “A (% inhibition is greater than or equal to 75%)”. The “FAAH % inh. 5 mg/kg (mouse)” value (FAAH [4]) was “D (% inhibition is greater than or equal to 0% and less than 25%)”, the inhibition at 1 µM (FAAH [5]) was 0 to 25% and the inhibition at 1 µM (MAGL [6]) was greater than 75%.

In the case of `C[C@H]1CN(C(=O)n2ccc(NS(C)(=O)=O)n2)CCN1Cc1ccc(Cl)c(N2CC3COCC3C2)c1` (stereo partly drawn) [Example 143, N-(1-((3S)-4-(4-Chloro-3-(tetrahydro-1H-furo[3,4-c]pyrrol-5(3H)-yl)benzyl)-3-methylpiperazine-1-carbonyl)-1H-pyrazol-3-yl)methanesulfonamide], the inhibition at 1 µM (MAGL [1]) is reported as greater than 75%, the inhibition at 1 µM (FAAH [2]) is reported as 0 to 25% and the “MAGL % inh. 5 mg/kg (mouse)” value (MAGL [3]) is reported as “D (% inhibition is greater than or equal to 0% and less than 25%)”. For the same compound, the “FAAH % inh. 5 mg/kg (mouse)” value (FAAH [4]) was “D (% inhibition is greater than or equal to 0% and less than 25%)”, the inhibition at 1 µM (FAAH [5]) was 0 to 25% and the inhibition at 1 µM (MAGL [6]) was greater than 75%.

`CC(=O)Nc1ccn(C(=O)N2CCC3(CCN(Cc4ccc(C(N)=O)c(C(F)(F)F)c4)C3)CC2)n1` [Example 125, 4-((8-(3-Acetamido-1H-pyrazole-1-carbonyl)-2,8-diazaspiro[4.5]decan-2-yl)methyl)-2-(trifluoromethyl)benzamide] was tested, and the inhibition at 1 µM (MAGL [1]) was greater than 75%, the inhibition at 1 µM (FAAH [2]) was 0 to 25% and the “MAGL % inh. 5 mg/kg (mouse)” value (MAGL [3]) was “D (% inhibition is greater than or equal to 0% and less than 25%)”. For the same compound, the “FAAH % inh. 5 mg/kg (mouse)” value (FAAH [4]) was “D (% inhibition is greater than or equal to 0% and less than 25%)”, the inhibition at 1 µM (FAAH [5]) was 0 to 25% and the inhibition at 1 µM (MAGL [6]) was greater than 75%.

`C[C@@H]1CCCN1c1cc(CN2CCN(C(=O)n3ccc(NS(C)(=O)=O)n3)CC2)ccc1C(F)(F)F` [Example 156, (R)-N-(1-(4-(3-(2-Methylpyrrolidin-1-yl)-4-(trifluoromethyl)benzyl)piperazine-1-carbonyl)-1H-pyrazol-3-yl)methanesulfonamide] was tested, and the inhibition at 1 µM (MAGL [1]) was greater than 75%, the inhibition at 1 µM (FAAH [2]) was 0 to 25% and the “MAGL % inh. 5 mg/kg (mouse)” value (MAGL [3]) was “A (% inhibition is greater than or equal to 75%)”. For the same compound, the “FAAH % inh. 5 mg/kg (mouse)” value (FAAH [4]) was “D (% inhibition is greater than or equal to 0% and less than 25%)”, the inhibition at 1 µM (FAAH [5]) was 0 to 25% and the inhibition at 1 µM (MAGL [6]) was greater than 75%.

With `CS(=O)(=O)Nc1ccn(C(=O)N2CCN(Cc3ccc(Cl)c(N4CC[C@H](F)C4)c3)CC2)n1` [Example 117, (S)-N-(1-(4-(4-Chloro-3-(3-fluoropyrrolidin-1-yl)benzyl)piperazine-1-carbonyl)-1H-pyrazol-3-yl)methanesulfonamide] the inhibition at 1 µM (MAGL [1]) was greater than 75%, the inhibition at 1 µM (FAAH [2]) was 0 to 25% and the “MAGL % inh. 5 mg/kg (mouse)” value (MAGL [3]) was “B (% inhibition is greater than or equal to 50% and less than 75%)”. The “FAAH % inh. 5 mg/kg (mouse)” value (FAAH [4]) was “D (% inhibition is greater than or equal to 0% and less than 25%)”, the inhibition at 1 µM (FAAH [5]) was 0 to 25% and the inhibition at 1 µM (MAGL [6]) was greater than 75%.

In the case of `CC(=O)Nc1ccn(C(=O)N2CC3CN(Cc4ccc(Cl)c(C(C)(C)O)c4)CC3C2)n1` (stereo not shown) [Example 150, N-(1-(5-(4-Chloro-3-(2-hydroxypropan-2-yl)benzyl)octahydropyrrolo[3,4-c]pyrrole-2-carbonyl)-1H-pyrazol-3-yl)acetamide], the inhibition at 1 µM (MAGL [1]) is reported as greater than 75%, the inhibition at 1 µM (FAAH [2]) is reported as 0 to 25% and the “MAGL % inh. 5 mg/kg (mouse)” value (MAGL [3]) is reported as “D (% inhibition is greater than or equal to 0% and less than 25%)”. For the same compound, the “FAAH % inh. 5 mg/kg (mouse)” value (FAAH [4]) was “D (% inhibition is greater than or equal to 0% and less than 25%)”, the inhibition at 1 µM (FAAH [5]) was 25 to 50% and the IC50 (FAAH [5]) was 1 to 10 µM. For the same compound, the inhibition at 1 µM (MAGL [6]) was greater than 75% and the IC50 (MAGL [6]) was less than 0.1 µM.

`CS(=O)(=O)Nc1ccn(C(=O)N2CC[C@H](Oc3ccc(C(F)(F)F)c(N4CCC(F)CC4)c3)[C@H](F)C2)n1` [Example 134, N-(1-((3R,4S)-3-Fluoro-4-(3-(4-fluoropiperidin-1-yl)-4-(trifluoromethyl)phenoxy)piperidine-1-carbonyl)-1H-pyrazol-3-yl)methanesulfonamide] was tested, and the inhibition at 1 µM (MAGL [1]) was greater than 75%, the inhibition at 1 µM (FAAH [2]) was 0 to 25% and the “MAGL % inh. 5 mg/kg (mouse)” value (MAGL [3]) was “C (% inhibition is greater than or equal to 25% and less than 50%)”. The “FAAH % inh. 5 mg/kg (mouse)” value (FAAH [4]) was “D (% inhibition is greater than or equal to 0% and less than 25%)”, the inhibition at 1 µM (FAAH [5]) was 0 to 25% and the inhibition at 1 µM (MAGL [6]) was greater than 75%.

In the case of `CN(Cc1ccc(C(F)(F)F)cc1N1CCN(C(=O)CO)CC1)C1(C)CCN(C(=O)n2ccc(NS(C)(=O)=O)n2)CC1` [Example 104, N-(1-(4-((2-(4-(2-Hydroxyacetyl)piperazin-1-yl)-4-(trifluoromethyl)benzyl)(methyl)amino)-4-methylpiperidine-1-carbonyl)-1H-pyrazol-3-yl)methanesulfonamide], the inhibition at 1 µM (MAGL [1]) is reported as greater than 75%, the inhibition at 1 µM (FAAH [2]) is reported as 0 to 25% and the “MAGL % inh. 5 mg/kg (mouse)” value (MAGL [3]) is reported as “D (% inhibition is greater than or equal to 0% and less than 25%)”. For the same compound, the “FAAH % inh. 5 mg/kg (mouse)” value (FAAH [4]) was “D (% inhibition is greater than or equal to 0% and less than 25%)”, the inhibition at 1 µM (FAAH [5]) was 0 to 25% and the inhibition at 1 µM (MAGL [6]) was greater than 75%.

For `CC(C)N1CCN(c2cc(CN3CCN(C(=O)n4ccc(NS(C)(=O)=O)n4)C[C@@H]3C)ccc2Cl)CC1=O` [Example 190, (S)-N-(1-(4-(4-Chloro-3-(4-isopropyl-3-oxopiperazin-1-yl)benzyl)-3-methylpiperazine-1-carbonyl)-1H-pyrazol-3-yl)methanesulfonamide], the inhibition at 1 µM (MAGL [1]) was greater than 75%, the “MAGL % inh. 5 mg/kg (mouse)” value (MAGL [3]) was “D (% inhibition is greater than or equal to 0% and less than 25%)” and the inhibition at 1 µM (MAGL [6]) was greater than 75%.
